According to US20130023569A1, “Use of Deferiprone for Treatment and Prevention of Iron-Related Eye Disorders” (THE TRUSTEES OF THE UNIVERSITY OF PENNSYLVANIA, priority 2009, published 2013):

Tests used:
[1] = tested on: transferrin Receptor (TfR) mRNA; assay: TfR mRNA by qPCR in retina and RPE/choroid of wild type mice, oral deferiprone; assay type: in vivo, mouse; details: 1 mg/ml in drinking water PO for 11 days, n=4, vs untreated
Method: FIG. 2 is two graphs showing relative quantification of transferrin Receptor (TfR) mRNA levels in the retinas and retinal pigment epithelia (RPE)/choroids of deferiprone treated and untreated wild type mice in retinas (FIG. 2A) and in RPE/choroids (FIG. 2B). The treated mice (n=4) were given deferiprone for 11 days PO (1 mg/ml in the drinking water). […] Relative quantification of TfR expression is also shown for the RPE/choroids (See FIG. 2B) of treated in comparison to untreated animals.

[2] = tested on: transferrin receptor messenger ribonucleic acid (TfR mRNA); assay: TfR mRNA by qPCR in RPE/choroid after deferiprone eye drops; assay type: in vivo, mouse; details: eye drops 10 mg/ml three times a day for two months, right eye treated vs left eye control
Method: FIG. 3 is a graph illustrating the amount of transferrin receptor messenger ribonucleic acid (TfR mRNA) in the RPE/choroid from a treated eye and an untreated eye. The error bars represent SD of 3 PCR reactions using the same batch of mRNA template.
(§1) Eye Drop Administration: Beginning at age 5 months (when elevated retinal iron levels are detected), mice were given deferiprone eye drops (10 mg/ml) three times a day in one eye and control water eye drops in the other eye for two months, with the last drop given 2 h prior to sacrifice. Eyes were fixed in 2% paraformaldehyde/2% glutaraldehyde then sectioned for analysis of morphology (following staining with Toluidine Blue) and iron content (following staining with Perls' Prussian Blue). The number and length of retinal pigment epithelial (RPE) cell hypertrophy and photoreceptor atrophy areas were quantified in deferiprone-treated vs. water-treated control eyes. The intensity of Perls' stain in the ciliary body, retina and RPE were assessed in digital photomicrographs quantifying pixel density.
The mouse had the right eye (OD) treated with deferiprone topically (in the form of the eye drops, 10 mg/ml) three times a day for two months, whereas the left eye (OS) was used as an internal control. The last administration was given 2 h prior to sacrifice. Relative quantification of TfR mRNA was detected by qPCR. […]

[3] = tested on: retinal iron; assay: Perls' stain of retinal iron in DKO mice, oral deferiprone; assay type: in vivo; details: 13 month old DKO mouse, PO 1 mg/ml in drinking water for 9 months, vs untreated DKO
Source text: FIG. 4 illustrates three Perls' stains of 7 and 13 month old untreated DKO mice retinas (FIGS. 4A and 4B, respectively) and of a treated 13 month old DKO mouse (FIG. 4C). The following abbreviations appear in the Figures: RPE, retinal pigment epithelium; ONL, outer nuclear layer; OPL, outer plexiform layer; IPL, inner plexiform layer; GCL, ganglion cell layer. Scale bar: 50 μm.
as §1, with “Eyes were fixed in 2% paraformaldehyde/2% glutaraldehyde then sectioned for analysis of morphology (following staining with Toluidine Blue) and iron content (following staining with Perls' Prussian Blue).” left out
(§2) Oral Administration: DKO mice were given deferiprone in their drinking water at a concentration of (1 mg/ml). […] The animals were sacrificed at various time points that are known to represent significant retinal and neurological damage in untreated animals and the eyes of sacrificed animals were analyzed as noted above. […]

[4] = cited from earlier work
[5] = Hematocrit in DKO mice, oral deferiprone; assay type: in vivo, mouse
Source text: In the following examples, double knockout (DKO) mice were used where the mice were genetically modified to generate a deficiency in the ferroxidase ceruloplasmin (Cp) and its homologue hephaestin (Heph). These mice develop age-related retinal degeneration due to retinal iron accumulation, as do humans. Since the knockout affects all tissues and organs, they also develop other symptoms of localized iron excess, with a simultaneous inability to adequately utilize the available iron for normal homeostasis, such as making new hemoglobin (they have low hematocrits). These animals also develop neurological deficits, including ataxia and die at an early age, typically 6-9 months, although some may survive to 12 or 13 months with significant impaired ability to function The retinas of these Cp/Heph deficient mice accumulate iron in the RPE and photoreceptor outer segments in an age-dependent manner, then develop RPE and photoreceptor degeneration with subretinal neovascularization and sub-RPE wide-spaced collagen deposits. […]
as §2

[6] = tested on: Cp/Heph double knockout (DKO) mice; assay: Retinal histology of Cp/Heph DKO mice given oral deferiprone in drinking water; assay type: in vivo, mouse
Source text: In the following examples, double knockout (DKO) mice were used where the mice were genetically modified to generate a deficiency in the ferroxidase ceruloplasmin (Cp) and its homologue hephaestin (Heph). These mice develop age-related retinal degeneration due to retinal iron accumulation, as do humans. Since the knockout affects all tissues and organs, they also develop other symptoms of localized iron excess, with a simultaneous inability to adequately utilize the available iron for normal homeostasis, such as making new hemoglobin (they have low hematocrits). These animals also develop neurological deficits, including ataxia and die at an early age, typically 6-9 months, although some may survive to 12 or 13 months with significant impaired ability to function The retinas of these Cp/Heph deficient mice accumulate iron in the RPE and photoreceptor outer segments in an age-dependent manner, then develop RPE and photoreceptor degeneration with subretinal neovascularization and sub-RPE wide-spaced collagen deposits. Cp/Heph DKO mice develop retinal, brain, liver, and heart iron overload with iron deficiency anemia. In untreated DKOs, iron gets trapped in the tissues and is not returned to the blood, leading to iron deficiency anemia. There is an age-dependent tissue iron buildup with retinal and brain degeneration.
as §1
Oral Administration: DKO mice were given deferiprone in their drinking water at a concentration of (1 mg/ml). The mice typically drink 5 ml of water a day and weigh 30 g. Mice began drinking deferiprone/water at age 7 months since that is the time such mice normally develop the retinal changes consistent with AMD. The animals were sacrificed at various time points that are known to represent significant retinal and neurological damage in untreated animals and the eyes of sacrificed animals were analyzed as noted above.

[7] = tested on: eye of Hra:(NZW)SPF rabbits; assay: Sensitivity testing of eye drops: ocular irritation/corrosion (Draize, sodium fluorescein); assay type: in vivo, rabbit
Method: The ocular irritation/corrosion potential of the product was assessed by instilling approximately 0.1 mL at a concentration of about 13 mg/mL into the everted lower lid of the right eye of 3 male Hra:(NZW)SPF rabbits; the left eye served as the untreated control. Approximately 24 hours after instillation, the treated eyes were examined for corneal injury and washed using room-temperature physiological saline.

[8] = tested on: Cp/Heph double knockout (DKO) mice; assay: Survival (Kaplan-Meier) and ataxia of DKO mice, oral deferiprone; assay type: in vivo, mouse
Source text: FIG. 7 is a Kaplan-Meier survival curve for deferiprone treated and untreated DKO mice.
In the following examples, double knockout (DKO) mice were used where the mice were genetically modified to generate a deficiency in the ferroxidase ceruloplasmin (Cp) and its homologue hephaestin (Heph). These mice develop age-related retinal degeneration due to retinal iron accumulation, as do humans. Since the knockout affects all tissues and organs, they also develop other symptoms of localized iron excess, with a simultaneous inability to adequately utilize the available iron for normal homeostasis, such as making new hemoglobin (they have low hematocrits). […]
Oral Administration: DKO mice were given deferiprone in their drinking water at a concentration of (1 mg/ml). […] The animals were sacrificed at various time points that are known to represent significant retinal and neurological damage in untreated animals and the eyes of sacrificed animals were analyzed as noted above.
(P<0.0001). The lifespan of the treated animals is an under-estimate, as these mice were sacrificed for iron quantification before they became sick. […]

Cc1c(O)c(=O)ccn1C [deferiprone]
TfR mRNA levels in retinas (relative quantification, standardized to 18S RNA) [1]: significant up regulation of TfR mRNA levels | TfR expression in RPE/choroids (relative quantification) ([1]; P<0.05): significant difference | TfR mRNA in RPE/choroid (relative quantification) [2]: siqnificant TfR mRNA increase | retinal iron (Perls' stain) [3]: decreased retinal iron | half life ([4]; humans): about 2 hours | agranulocytosis, share of patients ([4]; thalassemia patients, oral doses 75 to 100 mg/kg/day): about 1% | hematocrit, mean value ([5]; deferiprone-treated DKO mice n=7, untreated mean 24.6%, P<0.05): 36.7% | hematocrit at time of sacrifice ([5]; treated DKO mice 12 and 14 months old, 1 mg/ml in drinking water 5-7 months, untreated 19-26%): 30-50% | retina appearance (toluidine blue plastic sections) ([6]; 14 month Cp/Heph knockout, oral deferiprone for 5 months, FIG. 1): appears normal except for a few mildly hypertrophic RPE cells | retinal degeneration and damage ([6]; DKO mice 12-14 months old, deferiprone 1 mg/ml in drinking water for 5-7 months): almost no retinal degeneration and damage | retinal tissue histology ([6]; DKO mice, deferiprone 1 mg/ml PO in drinking water for 6-9 months, FIG. 5): near normal tissue | areas of RPE hypertrophy, share of the retina involved ([6]; most severely affected regions, DKO mice, deferiprone 1 mg/ml PO for 6-9 months, untreated more than 90%): < 10% | eye irritation, Draize score ([7]; 0.1 mL of about 13 mg/mL into right eye of 3 male rabbits, 1, 24, 48 and 72 hours after instillation): 0 | corneal injury, sodium fluorescein test ([7]; about 24 hours post dose, about 13 mg/mL, rabbits): no injury to the cornea | ataxia ([8]; DKO mice, 1 mg/ml in drinking water, 2 mice at 14 months and 2 at 12 months): some mild ataxia | median survival ([8]; treated DKO mice, LogRank test, untreated 7 months, P<0.0001): 13 months
